Measured values as given in patent US5541175A, “Cephalosporin antibiotics” (Lucky, Ltd., priority 1993, dated 1996).
≈ marks a conversion by molar mass, not a printed value. Like-named read-outs stand apart in the source and are kept apart here.

Key:
Test in all cases: Minimum inhibitory concentration (agar 2-fold dilution)
Format in all cases: cell-based
[1] = tested on: Serratia marcescens 1826E; settings: S. marcescens 1826E, Muller-Hinton agar, 37° C., 20 hours, read-out: Minimum Inhibitory Concentration
Procedure: (§1) The minimum inhibitory concentration was determined by diluting the test compounds according to 2-fold dilution, suspending them in Muller-Hinton agar medium, inoculating 2 μl of the suspension containing the test strains having 10^7 CFU (Colony Forming Unit) per 1 ml into the medium and then culturing the test strains at 37° C. for 20 hours.

[2] = tested on: Escherichia coli TEM1 1193E; settings: TEM11193E, 20 h, read-out: Minimum Inhibitory Concentration
Procedure: as §1

Escherichia coli 10536 = settings: Escherichia coli; E. coli 10536; Muller-Hinton agar, 37° C., 20 hours; read-out: Minimum Inhibitory Concentration
Procedure: as §1

[3] = tested on: Staphylococcus aureus giorgio; settings: S. aureus giorgio, Muller-Hinton agar, 37° C., 20 hours, read-out: Minimum Inhibitory Concentration
Procedure: as §1

[4] = tested on: Streptococcus faecalis 29212A; settings: Enterococcus faecalis; S. faecalis 29212A; Muller-Hinton agar, 37° C., 20 hours; read-out: Minimum Inhibitory Concentration
Procedure: as §1

[5] = tested on: Salmonella typhimurium 14028A; settings: Salmonella enterica; S. typhimurium 14028A; Muller-Hinton agar, 37° C., 20 hours; read-out: Minimum Inhibitory Concentration
Procedure: as §1

[6] = tested on: Staphylococcus aureus 6538P; settings: read-out: Minimum Inhibitory Concentration
Procedure: as §1

Enterobacter cloacae P99 = settings: P99, 20 h, read-out: Minimum Inhibitory Concentration
Procedure: as §1

[7] = tested on: Escherichia coli TEM5 3739E; settings: TEM53739E, 20 h, read-out: Minimum Inhibitory Concentration
Procedure: as §1

[8] = tested on: Klebsiella aerogenes K1 + 1082E; settings: 20 h, read-out: Minimum Inhibitory Concentration
Procedure: as §1

[9] = tested on: Acinetobacter calcoaceticus 15473A; settings: A. calcoaceticus 15473A, Muller-Hinton agar, 37° C., 20 hours, read-out: Minimum Inhibitory Concentration
Procedure: as §1

[10] = tested on: Pseudomonas aeruginosa 10145; settings: Pseudomonas aeruginosa; P. aeruginosa 10145; Muller-Hinton agar, 37° C., 20 hours; read-out: Minimum Inhibitory Concentration
Procedure: as §1

Escherichia coli 3190Y = settings: E. coli 3190Y, Muller-Hinton agar, 37° C., 20 hours, read-out: Minimum Inhibitory Concentration
Procedure: as §1

[11] = tested on: Klebsiella aerogenes SHV-1 1976E; settings: SHV11976E, K. aerogenes SHV-1 1976E, Muller-Hinton agar, 37° C., 20 hours
Procedure: as §1

[12] = tested on: Staphylococcus aureus 241; settings: Staphylococcus aureus; S. aureus 241; Muller-Hinton agar, 37° C., 20 hours; read-out: Minimum Inhibitory Concentration
Procedure: as §1

[13] = tested on: Enterobacter cloacae IND + VE 1194E; settings: E. cloacae IND + VE 1194E, Muller-Hinton agar, 37° C., 20 hours, read-out: Minimum Inhibitory Concentration
Procedure: as §1

[14] = tested on: Pseudomonas aeruginosa 1912E; settings: P. aeruginosa 1912E, Muller-Hinton agar, 37° C., 20 hours, read-out: Minimum Inhibitory Concentration
Procedure: as §1

[15] = tested on: Escherichia coli TEM9 2639E; settings: TEM92639E, 20 h, read-out: Minimum Inhibitory Concentration
Procedure: as §1

Staphylococcus aureus 77 = settings: read-out: Minimum Inhibitory Concentration
Procedure: as §1

[16] = tested on: Citrobacter diversus 2046E; settings: Citrobacter koseri; C. diversus 2046E; Muller-Hinton agar, 37° C., 20 hours; read-out: Minimum Inhibitory Concentration
Procedure: as §1

[17] = tested on: Pseudomonas aeruginosa 6065; settings: Pseudomonas aeruginosa; P. aeruginosa 6065; Muller-Hinton agar, 37° C., 20 hours; read-out: Minimum Inhibitory Concentration
Procedure: as §1

[18] = tested on: Staphylococcus aureus epidermidis 887E; settings: S. aureus epidermidis 887E, Muller-Hinton agar, 37° C., 20 hours, read-out: Minimum Inhibitory Concentration
Procedure: as §1

Escherichia coli 851E = settings: E. coli 851E, Muller-Hinton agar, 37° C., 20 hours
Procedure: as §1

[19] = tested on: Escherichia coli TEM7 3457E; settings: TEM73457E, 20 h, read-out: Minimum Inhibitory Concentration
Procedure: as §1

[20] = tested on: Escherichia coli TEM3 3455E; settings: TEM33455E, 20 h, read-out: Minimum Inhibitory Concentration
Procedure: as §1

Proteus vulgaris 6059A = settings: P. vulgaris 6059A, Muller-Hinton agar, 37° C., 20 hours, read-out: Minimum Inhibitory Concentration
Procedure: as §1

SMILES	MIC [1] [µg/mL]	MIC [2] [µg/mL]	MIC (Escherichia coli 10536) [µg/mL]	MIC [3] [µg/mL]	MIC [4] [µg/mL]	MIC [5] [µg/mL]	MIC (Enterobacter cloacae P99) [µg/mL]	MIC [7] [µg/mL]	MIC [8] [µg/mL]	MIC [9] [µg/mL]	MIC [10] [µg/mL]	MIC (Escherichia coli 3190Y) [µg/mL]	MIC [11] [µg/mL]	MIC [12] [µg/mL]	MIC [13] [µg/mL]	MIC [14] [µg/mL]	MIC [15] [µg/mL]	MIC [16] [µg/mL]	MIC [17] [µg/mL]	MIC [18] [µg/mL]	other results
Cc1c(N)nc[n+](C/C=C/C2=C(C(=O)[O-])N3C(=O)[C@@H](NC(=O)/C(=N\O[C@@H](C(=O)O)c4ccc(O)c(O)c4)c4csc(N)n4)[C@H]3SC2)c1N [Compound I-4b, 7-[(Z)-2-(2-aminothiazol-4-yl)-2-(α-carboxy-3,4-dihydroxybenzyloxyimino)acetamido]-3-[(E)-3-(4,6-diamino-5-methylpyrimidinium-1-yl)-1-propen-1-yl]-3-cephem-4-carboxylate]	2 (≈ 2.87 µM)	0.25 (≈ 0.358 µM)	0.13 (≈ 0.186 µM)	0.5 (≈ 0.717 µM)	8 (≈ 11.5 µM)	0.13 (≈ 0.186 µM)	16 (≈ 22.9 µM)	1 (≈ 1.43 µM)	2 (≈ 2.87 µM)	4 (≈ 5.73 µM)	4 (≈ 5.73 µM)	0.13 (≈ 0.186 µM)	1 (≈ 1.43 µM)	128 (≈ 183 µM)	8	8 (≈ 11.5 µM)	1 (≈ 1.43 µM)	4 (≈ 5.73 µM)	16 (≈ 22.9 µM)	32 (≈ 45.9 µM)	MIC ([6]; S. aureus 6538P, Muller-Hinton agar, 37° C., 20 hours): 0.5 µg/mL (≈ 0.717 µM); MIC (Staphylococcus aureus 77; Staphylococcus aureus, S. aureus 77, Muller-Hinton agar, 37° C., 20 hours): 2 µg/mL (≈ 2.87 µM); MIC (Escherichia coli 851E): 0.13 µg/mL (≈ 0.186 µM); MIC [19]: 0.25 µg/mL (≈ 0.358 µM); MIC [20]: 0.5 µg/mL (≈ 0.717 µM); MIC (Proteus vulgaris 6059A): 1 µg/mL (≈ 1.43 µM)
Nc1nc(/C(=N/O[C@@H](C(=O)O)c2ccc(O)c(O)c2)C(=O)N[C@@H]2C(=O)N3C(C(=O)[O-])=C(/C=C/C[n+]4cnc(N)c(N)c4N)CS[C@H]23)cs1 [Compound I-5b, 7-[(Z)-2-(2-aminothiazol-4-yl)-2-(α-carboxy-3,4-dihydroxybenzyloxyimino)acetamido]-3-[(E)-3-(4,5,6-triaminopyrimidinium-1-yl)-1-propen-1-yl]-3-cephem-4-carboxylate]	2 (≈ 2.86 µM)	0.25 (≈ 0.358 µM)	0.13 (≈ 0.186 µM)	0.5 (≈ 0.716 µM)	8 (≈ 11.4 µM)	0.031 (≈ 0.0444 µM)	16 (≈ 22.9 µM)	1 (≈ 1.43 µM)	1 (≈ 1.43 µM)	1 (≈ 1.43 µM)	2 (≈ 2.86 µM)	0.13 (≈ 0.186 µM)	1 (≈ 1.43 µM)	128 (≈ 183 µM)	8	1 (≈ 1.43 µM)	1 (≈ 1.43 µM)	4 (≈ 5.72 µM)	8 (≈ 11.4 µM)	64 (≈ 91.6 µM)	MIC ([6]; 6538P, 20 h): 0.5 µg/mL (≈ 0.716 µM); MIC (Staphylococcus aureus 77; Staphylococcus aureus, 77, 20 h): 2 µg/mL (≈ 2.86 µM); MIC (Escherichia coli 851E): 0.13 µg/mL (≈ 0.186 µM); MIC [19]: 0.25 µg/mL (≈ 0.358 µM); MIC [20]: 0.063 µg/mL (≈ 0.0902 µM); MIC (Proteus vulgaris 6059A): 1 µg/mL (≈ 1.43 µM)
